Patent publication US20070037752A1, “Novel alanyl-amino peptidase inhibitors for functionally influencing different cells and treating immunological, inflammatory, neuronal, and other diseases” (priority 2003, published 2007)

target: alanyl aminopeptidases (APN) (Homo sapiens, UniProt P15144); experiment: Inhibition of alanyl aminopeptidase enzymatic activity, fluorogenic substrate (Ala)2-rhodamine 110; type: biochemical; conditions: Table 4, starred values = ID50; read-out: ID50 APN (values marked with *)
Procedure: The inhibition characteristics measured are referred to as IC-50 values or ID50 values (the latter marked with “*”) for said enzyme. The enzymatic activity was determined by means of the fluorogenic substrate/product (Ala)2-rhodamine 110.

alanyl aminopeptidases (APN), sequence (P15144 whole entry, species assumed): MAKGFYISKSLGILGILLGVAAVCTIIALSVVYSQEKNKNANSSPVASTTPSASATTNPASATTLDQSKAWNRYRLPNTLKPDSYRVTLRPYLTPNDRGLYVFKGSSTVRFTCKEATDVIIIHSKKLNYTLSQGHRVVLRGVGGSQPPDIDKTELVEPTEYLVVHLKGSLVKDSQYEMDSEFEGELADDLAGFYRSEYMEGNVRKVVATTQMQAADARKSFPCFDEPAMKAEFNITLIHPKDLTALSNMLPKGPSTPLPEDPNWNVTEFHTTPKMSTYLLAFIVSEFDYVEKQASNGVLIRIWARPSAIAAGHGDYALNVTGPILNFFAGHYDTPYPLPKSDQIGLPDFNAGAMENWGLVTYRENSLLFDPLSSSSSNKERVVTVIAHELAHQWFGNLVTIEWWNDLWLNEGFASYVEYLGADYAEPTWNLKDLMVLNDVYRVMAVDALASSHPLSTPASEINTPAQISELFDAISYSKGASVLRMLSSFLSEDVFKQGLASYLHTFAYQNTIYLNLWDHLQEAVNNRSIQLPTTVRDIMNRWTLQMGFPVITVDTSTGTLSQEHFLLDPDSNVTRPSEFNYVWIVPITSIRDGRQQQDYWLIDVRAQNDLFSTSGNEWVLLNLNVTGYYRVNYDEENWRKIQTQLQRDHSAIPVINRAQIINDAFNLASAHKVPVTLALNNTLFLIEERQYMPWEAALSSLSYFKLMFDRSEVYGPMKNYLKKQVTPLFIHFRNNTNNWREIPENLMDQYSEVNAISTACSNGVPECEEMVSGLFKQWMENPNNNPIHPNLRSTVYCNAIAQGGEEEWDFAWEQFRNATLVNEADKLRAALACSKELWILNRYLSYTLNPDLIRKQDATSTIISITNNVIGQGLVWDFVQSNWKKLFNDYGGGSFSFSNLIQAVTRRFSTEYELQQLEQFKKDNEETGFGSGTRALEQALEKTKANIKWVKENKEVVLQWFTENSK

IC50 [µM]	Structure (SMILES)
33.8	Cc1cccc(C(=O)Nc2ccc(C(=O)N/N=C/c3ccc4c(c3)OCO4)cc2)c1 [A4.105]
39.7	COc1ccc(C(=O)N/N=C\c2cc(Br)c(O)c(O)c2Br)cc1 [A4.124]

same assay, conditions: Table 4, unstarred values; read-out: IC50APN

Structure (SMILES)	IC50 [µM]
COc1ccc2ccccc2c1-c1cc(C(=O)N/N=C(\C)c2ccco2)[nH]n1 [A4.121]	38.2
O=C(N/N=C/c1ccco1)c1ccc(O)cc1O [A4.122]	38.3
CC(=O)Nc1ccc(C(=O)N/N=C/c2ccco2)cc1 [A4.123]	38.4
O=C(CCC(=O)Nc1ccccc1)N/N=C/c1ccco1 [A4.125]	41.1
Cc1cc(Br)c(OCC(=O)N/N=C/c2c(Br)cc(Br)c(O)c2Br)c(Br)c1 [A4.126]	42.2
COc1ccc(OC)c(-c2cc(C(=O)N/N=C/c3ccco3)[nH]n2)c1 [A4.127]	43.2
O=C(Cn1cnc2ccccc21)N/N=C/c1ccco1 [A4.128]	43.3
Cc1ccc(/C=N/NC(=O)c2ccc(N3CCCC3=O)cc2)o1 [A4.129]	44.2
O=C(N/C=C1/C(=O)Nc2ccc(F)cc21)/C(=C/c1ccccc1)NC(=O)c1ccccc1 [A4.130]	44.2
COc1ccccc1C(=O)N/N=C/c1ccco1 [A4.131]	44.7
O=C(N/N=C/c1cccc([N+](=O)[O-])c1)c1ccco1 [A4.132]	45.4
Cc1ccccc1C(=O)Nc1ccc(C(=O)N/N=C/c2ccco2)cc1 [A4.133]	45.4
CC(C)Oc1ccc(Br)cc1C(=O)N/N=C/c1ccco1 [A4.134]	46.6
Nc1nonc1-n1nnc(C(=O)N/N=C/c2ccco2)c1-c1ccccc1 [A4.135]	46.6
COc1ccc(N(C(C)C(=O)N/N=C/c2ccco2)S(C)(=O)=O)cc1 (stereo not drawn) [A4.136]	47
O=C(COc1ccc2ccccc2c1Br)N/N=C/c1ccco1 [A4.137]	47.3

Other lines, results leading:

IC50 [µM]	Structure (SMILES)
29.7	CC(=O)Nc1ccc(C(=O)N/N=C/c2ccc(C)o2)cc1 [A4.095]
30	Cc1ccc(/C=N/NC(=O)c2cccc(I)c2)o1 [A4.096]
30.1	O=C(N/N=C\c1ccco1)c1cnccn1 [A4.097]
31	Cc1occc1C(=O)N/N=C/C=C\c1ccco1 [A4.098]
31.8	Cc1cc(C(=O)N/N=C/c2ccc(C)o2)[nH]n1 [A4.100]
31.9	O=C(CNC(=O)c1ccccc1Br)N/N=C/c1ccoc1 [A4.101]
32.4	O=C(CC(=O)N/N=C/c1ccco1)N/N=C/c1ccco1 [A4.102]
32.5	O=C(N/N=C/c1ccco1)c1ccc(NC(=O)c2ccccc2Cl)cc1 [A4.103]
33.4	CCOc1ccc(-c2cc(C(=O)N/N=C/c3ccco3)[nH]n2)cc1OC [A4.104]
34	O=C(CCC(=O)Nc1cccc(Cl)c1)N/N=C/c1ccco1 [A4.106]
34.2	C/C(=N\NC(=O)c1ccccc1)c1ccc2ccccc2c1O [A4.107]
34.4	Cc1ccc(/C=N/NC(=O)c2ccc(F)cc2)o1 [A4.108]
34.7	O=C(Nc1ccccc1C(=O)N/N=C/c1ccco1)c1ccccc1Cl [A4.109]
34.7	COc1ccccc1C(=O)N/N=C/c1ccc(C)o1 [A4.110]
34.7	O=C(N/N=C/c1ccco1)c1cccc(I)c1 [A4.111]
34.7	CSc1nnc2n(/N=C/c3ccco3)cnn12 [A4.112]
35.5	CC(=O)n1cc(/C=C/C=N/NC(=O)CC#N)c2ccccc21 [A4.113]
36.1	COc1cc(-c2cc(C(=O)N/N=C/c3ccco3)[nH]n2)ccc1OC(C)C [A4.114]
36.2	Cc1cccc(C(=O)Nc2cccc(C(=O)N/N=C/c3ccc(C)o3)c2)c1 [A4.115]
36.3	COc1cc(Br)ccc1OCC(=O)N/N=C(C)/C=C/c1ccco1 [A4.116]
36.3	Cc1ccc(OCC(=O)N/N=C/c2ccco2)cc1C [A4.117]
36.3	CC(/C=N/NC(=O)C(O)c1ccccc1)=C\c1ccco1 (stereo not drawn) [A4.118]
36.6	Cc1c(Cl)cccc1NC(=O)CCC(=O)N/N=C/c1ccco1 [A4.119]
37.7	O=C(N/N=C/c1ccco1)c1ccccc1 [A4.120]
